Experiments:
Type in all cases: cell-based
hERG [1] = target: T1, hERG (Homo sapiens, UniProt Q12809); assay: hERG pIC50 assay (QPatch automated patch clamp, CHO cells, 1, 3, 10 and 30 μM); conditions: CHO cells expressing hERG, 1-30 μM, ≤4.0 = fails to reach >40% block at 30 μM
Source text: (§1) Series resistance (4-15 MΩ) was compensated by >80%.

hERG [2] = target: T1, hERG; assay: hERG single-concentration assay (QPatch automated patch clamp, CHO cells, 30 μM); conditions: CHO cells stably expressing hERG
Source text: as §1

human H4 receptor [3] = target: T2, human H4 receptor (Homo sapiens, UniProt Q9H3N8); assay: H4 Antagonist Functional cAMP Gi Assay; conditions: HEKf cells expressing human H4 receptor, functional antagonist pKb by Cheng-Prusoff vs histamine; for Kb: read-out: Human H4 cAMP fpKb (converted)
T2 construct: expressed in transfected cells; host or cells: HEKf cells infected with baculovirus
Protocol: HEKf cells were infected overnight using baculovirus expressing the human H4 receptor, then centrifuged at 1,200 rpm for 5 min, frozen in cell freezing medium (Sigma) and stored at −150° C. On the day of assay, the cells were thawed and resuspended in HBSS with 500 nM IBMX to achieve a density of 1,500 cells/well. H4 ligands were prepared in DMSO and stamped by LabCyte ECHO acoustic dispensing at 25 nL in low volume plates. 10 μL/well cells were plated in the presence of 1 μM forskolin, subjected to centrifugation at 1,200 rpm for 1 min and incubated for 30 min prior to addition of Cisbio cAMP detection reagents to a total volume 20 μL/well. […] Following detection reagent addition and shaking at room temperature for 60 min, cAMP accumulation was measured using HTRF on a PheraStar plate reader. EC50 values were generated using a 4-parameter logistical fit equation to quantify agonist potencies. Functional antagonist affinity values were generated using the Cheng-Prusoff equation to calculate a pKb value using the antagonist assay data.

human H4 receptor [4] = target: T2, human H4 receptor; assay: H4 Antagonist Functional Dynamic Mass Redistribution Assay; conditions: HEKf cells expressing human H4 receptor, functional antagonist pKb by Cheng-Prusoff vs histamine EC80; for Kb: read-out: Human H4 DMR fpKb (converted)
Protocol: HEKf cells were infected using baculovirus expressing the human H4 receptor, plated into fibronectin-coated EPIC plates at a density of 10,000 cells/well and incubated overnight at 37° C. The medium on cells was changed to 30 μL HBSS with 20 mM HEPES per well and 30 nL DMSO were added per well by LabCyte ECHO acoustic dispensing. Following 2 h equilibration at room temperature, 30 nL of H4 ligands prepared in DMSO were stamped by LabCyte ECHO acoustic dispensing into seeded EPIC plates and cellular dynamic mass redistribution was monitored using a Corning EPIC plate reader. Following 45 min measurement, 30 nL/well of histamine EC80 was added and monitored to obtain antagonist assay data. Maximum baseline-corrected responses in pm were used to generate concentration response curves. EC50 values were generated using a 4-parameter logistical fit equation to quantify agonist potencies. Functional antagonist affinity values were generated using the Cheng-Prusoff equation to calculate a pKb value using the antagonist assay data.

T1 sequence (Q12809 whole entry): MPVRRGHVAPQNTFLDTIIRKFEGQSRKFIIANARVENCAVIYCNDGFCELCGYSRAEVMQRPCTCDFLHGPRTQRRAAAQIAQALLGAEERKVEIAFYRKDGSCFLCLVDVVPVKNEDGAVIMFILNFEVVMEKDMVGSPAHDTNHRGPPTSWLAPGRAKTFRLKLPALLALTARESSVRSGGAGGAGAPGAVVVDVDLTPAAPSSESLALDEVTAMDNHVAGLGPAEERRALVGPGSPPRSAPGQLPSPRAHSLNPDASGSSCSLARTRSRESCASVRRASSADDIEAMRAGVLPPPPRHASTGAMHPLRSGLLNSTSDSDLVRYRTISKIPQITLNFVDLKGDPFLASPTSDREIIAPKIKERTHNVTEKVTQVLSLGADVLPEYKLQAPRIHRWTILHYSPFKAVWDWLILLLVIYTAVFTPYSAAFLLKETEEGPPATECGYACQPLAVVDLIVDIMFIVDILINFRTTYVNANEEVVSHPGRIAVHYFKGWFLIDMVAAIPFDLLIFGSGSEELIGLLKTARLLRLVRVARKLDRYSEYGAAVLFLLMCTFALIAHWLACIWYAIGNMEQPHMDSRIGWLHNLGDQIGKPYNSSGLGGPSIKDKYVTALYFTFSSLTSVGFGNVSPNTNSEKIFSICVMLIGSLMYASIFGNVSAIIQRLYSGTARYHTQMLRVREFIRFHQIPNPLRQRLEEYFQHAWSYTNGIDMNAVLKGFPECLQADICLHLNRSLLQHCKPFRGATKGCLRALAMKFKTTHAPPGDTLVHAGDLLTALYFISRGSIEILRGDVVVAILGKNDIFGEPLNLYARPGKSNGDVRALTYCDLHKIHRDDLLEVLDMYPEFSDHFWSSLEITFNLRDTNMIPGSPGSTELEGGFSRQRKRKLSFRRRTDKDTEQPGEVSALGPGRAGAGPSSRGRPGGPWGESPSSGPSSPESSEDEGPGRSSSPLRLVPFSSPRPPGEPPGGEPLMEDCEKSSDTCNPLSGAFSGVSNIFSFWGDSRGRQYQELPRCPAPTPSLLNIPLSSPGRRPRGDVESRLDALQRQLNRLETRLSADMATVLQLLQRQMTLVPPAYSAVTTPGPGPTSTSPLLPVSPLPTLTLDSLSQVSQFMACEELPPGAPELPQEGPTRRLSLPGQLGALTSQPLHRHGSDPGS

| Structure (SMILES) | Kb (human H4 receptor [3]) [nM] | Kb (human H4 receptor [4]) [nM] | IC50 (hERG [1]) [nM] | inhibition at 30 µM (hERG [2]) [%] | Human H4 DMR fpKb (human H4 receptor [4]) | Human H4 cAMP fpKb (human H4 receptor [3]) |
| --- | --- | --- | --- | --- | --- | --- |
| CN1CCN(C(=O)c2cc3cc(Cl)ccc3[nH]2)CC1 [JNJ-7777120, reference compound] |  |  | 3980 |  |  |  |
| CC(C)c1cc(N2CC[C@@H](N)C2)nc(N)n1 [JNJ-39758979, reference compound] |  |  |  |  | 8.5 | 8.1 |
| CC(C)[C@@H]1CCOc2c(nc(N)nc2N2CC[C@@H](N)C2)N1 [Example 12-1, (S)-4-((R)-3-Aminopyrrolidin-1-yl)-8-isopropyl-6,7,8,9-tetrahydropyrimido[5,4-b][1,4]oxazepin-2-amine] | 0.631 | 2.51 | ≥ 100000 |  |  |  |
| CNC1CN(c2nc(N)nc3c2OCC2CCCC2N3)C1 (stereo not drawn) [Example 17-3, 4-[3-(methylamino)azetidin-1-yl]-6a, 7,8,9,9a, 10-hexahydro-6H-cyclopenta[e]pyrimido[5,4-b][1,4]oxazepin-2-amine] |  | 31.6 |  | 42 |  |  |
| CC[C@@H]1CCOc2c(nc(N)nc2N2CC[C@@H](N)C2)N1 [Example 17-7, 4-[(3R)-3-aminopyrrolidin-1-yl]-8-ethyl-6,7,8,9-tetrahydropyrimido[5,4-b][1,4]oxazepin-2-amine] |  | 10 |  |  |  |  |
| CNC1CN(c2nc(N)nc3c2OCC[C@@H](C(C)C)N3)C1 [Example 13-1, (S)-8-Isopropyl-4-(3-(methylamino)azetidin-1-yl)-6,7,8,9-tetrahydropyrimido[5,4-b][1,4]oxazepin-2-amine] | 1 | 1.58 | ≥ 100000 | 15 |  |  |
| CN[C@@H]1CCN(c2nc(N)nc3c2OCC[C@H](C)N3)C1 [Example 11-3, (S)-8-Methyl-4-((R)-3-(methylamino)pyrrolidin-1-yl)-6,7,8,9-tetrahydropyrimido[5,4-b][1,4]oxazepin-2-amine] | 31.6 | 10 |  |  |  |  |
| CN[C@@H]1CCN(c2nc(N)nc3c2OCC(C(C)C)CN3)C1 (stereo partly drawn) [Example 11-9, 7-Isopropyl-4-((R)-3-(methylamino)pyrrolidin-1-yl)-6,7,8,9-tetrahydropyrimido[5,4-b][1,4]oxazepin-2-amine] | 63.1 | 50.1 |  |  |  |  |
| CN[C@@H]1CCN(c2nc(N)nc3c2OCC[C@@H](C)N3)C1 [Example 11-2, (R)-8-Methyl-4-((R)-3-(methylamino)pyrrolidin-1-yl)-6,7,8,9-tetrahydropyrimido[5,4-b][1,4]oxazepin-2-amine] | 2.51 | 5.01 |  | 13 |  |  |
| CN[C@@H]1CCN(c2nc(N)nc3c2OCC2CCCC2N3)C1 (stereo partly drawn) [Example 17-1, 4-[(3R)-3-(methylamino)pyrrolidin-1-yl]-6a,7,8,9,9a, 10-hexahydro-6H-cyclopenta[e]pyrimido[5,4-b][1,4]oxazepin-2-amine] |  | 12.6 |  | 29 |  |  |
| CN[C@@H]1CCN(c2nc(N)nc3c2OCC2(CCCC2)N3)C1 [Example 17-11, 4′-[(3R)-3-(methylamino)pyrrolidin-1-yl]-6′H,8′H-spiro[cyclopentane-1,7′-pyrimido[5,4-b][1,4]oxazin]-2′-amine] |  | 7.94 |  |  |  |  |

Further lines, with some results ahead:

| Kb (human H4 receptor [3]) [nM] | Kb (human H4 receptor [4]) [nM] | Structure (SMILES) | IC50 (hERG [1]) [nM] | inhibition at 30 µM (hERG [2]) [%] | Human H4 DMR fpKb (human H4 receptor [4]) | Human H4 cAMP fpKb (human H4 receptor [3]) |
| --- | --- | --- | --- | --- | --- | --- |
| 0.794 |  | CN[C@@H]1CCN(c2nc(N)nc3c2OC[C@@H](C(C)C)N3)C1 [Example 1-4, (R)-7-Isopropyl-4-((R)-3-(methylamino)pyrrolidin-1-yl)-7,8-dihydro-6H-pyrimido[5,4-b][1,4]oxazin-2-amine] | ≥ 100000 | 20 |  |  |
| 0.631 |  | CC(C)[C@@H]1COc2c(nc(N)nc2N2CC[C@@H](N)C2)N1 [Example 2-2, (R)-4-((R)-3-Aminopyrrolidin-1-yl)-7-isopropyl-7,8-dihydro-6H-pyrimido[5,4-b][1,4]oxazin-2-amine] | ≥ 100000 |  |  |  |
| 0.398 |  | CN[C@@H]1CCN(c2nc(N)nc3c2OCC[C@@H](C(C)C)N3)C1 [Example 11-5, (S)-8-Isopropyl-4-((R)-3-(methylamino)pyrrolidin-1-yl)-6,7,8,9-tetrahydropyrimido[5,4-b][1,4]oxazepin-2-amine] | ≥ 100000 | 21 |  |  |
| 1.26 |  | CNC1CN(c2nc(N)nc3c2OC[C@@H](C(C)C)N3)C1 [Example 3-2, (R)-7-Isopropyl-4-(3-(methylamino)azetidin-1-yl)-7,8-dihydro-6H-pyrimido[5,4-b][1,4]oxazin-2-amine] | ≥ 100000 | 26 |  |  |
| 0.631 | 1.26 | CC[C@@H]1CCOc2c(nc(N)nc2N2CC[C@@H](NC)C2)N1 [Example 11-4, (R)-8-Ethyl-4-((R)-3-(methylamino)pyrrolidin-1-yl)-6,7,8,9-tetrahydropyrimido[5,4-b][1,4]oxazepin-2-amine] | ≥ 100000 | 39 |  |  |
| 3.16 | 0.794 | CN[C@@H]1CCN(c2ncnc3c2OCC[C@@H](C(C)C)N3)C1 [Example 14-1, (R)-1-((S)-8-Isopropyl-6,7,8,9-tetrahydropyrimido[5,4-b][1,4]oxazepin-4-yl)-N-methylpyrrolidin-3-amine] |  | 41 |  |  |
|  | 7.94 | CC[C@]1(C)COc2c(nc(N)nc2N2CC[C@@H](NC)C2)N1 [Example 17-14, 7-ethyl-7-methyl-4-[(3R)-3-(methylamino)pyrrolidin-1-yl]-7,8-dihydro-6H-pyrimido[5,4-b][1,4]oxazin-2-amine] |  |  |  |  |
